Reference: a melting point compilation (Tetko et al.; mined from patent text by program, amines drawn as free bases though some values may be those of a salt)

| melting point | Compound |
| --- | --- |
| 152 to 155 °C | CC(=O)OCCN1CSC(=Cc2cc(C(C)(C)C)c(O)c(C(C)(C)C)c2)C1=O |
| 145 to 146 °C | COC1(c2cc(F)cc(Sc3ccc(C(CO)=NO)cc3)c2)CCOCC1 |
| 123 to 125 °C | O=C(O)C(S)c1ccc(Cl)cc1 (stereo not drawn) |
| 232 to 233 °C | c1cnc2[nH]cc(CN3CCN(c4ccc5[nH]ccc5c4)CC3)c2c1 |
| 137 to 139 °C | COC(=O)[C@H](Cc1ccc([N+](=O)[O-])cc1)NC(=O)c1ccccc1F |
| 108 to 111 °C | O=C1NC(=O)C(Cc2ccc(OCCON=Cc3ccc4ccccc4c3)cc2)S1 (stereo not drawn) |
| 69 to 70 °C | CCCCCCCC(=O)OCCc1c(-c2ccccc2)nc(NC(C)=O)n2ncnc12 |
| 178 to 179 °C | CC(C)(C)c1cc(-c2nc3n(c2SC#N)CCS3)cc(C(C)(C)C)c1O |
| 173 to 177 °C | COc1cccc(-c2cc(Cl)cc3c2OC(C(F)(F)F)C(C(=O)O)=C3)c1 (stereo not drawn) |
| 70 °C | CCCCCCCCC=CCCCCCCCC(=O)OCCCCCCCCCC |
| 157 to 158 °C | CC(c1ccc2c(c1)[nH]c1ccccc12)n1ccnc1 (stereo not drawn) |
| 75 to 80 °C | COC(=O)C1CC(C#N)(c2ccccc2)CCC1=O (stereo not drawn) |
| 156 °C | N#Cc1cc(C(F)(F)F)cc(Br)c1-c1nc(C(F)(F)C(F)(F)F)c(Br)c(=O)[nH]1 |
| 135 to 140 °C | CC(=O)OC(C)c1ccccc1CS(N)(=O)=O (stereo not drawn) |
| 132 to 135 °C | O=C(OC(c1ccc(Cl)cc1Cl)C(Oc1ccc(Cl)cc1)n1cncn1)c1ccc(Cl)cc1Cl (stereo not drawn) |
| 159 °C | NC1=NC2(O)c3ccc(Cl)cc3CC2(F)S1 (stereo not drawn) |
| 151 to 153 °C | CC(C)(CO)Nc1nc(-c2ccc(Br)cc2)cs1 |
| 149 to 150 °C | O=C(CCCCCCC(=O)N1CCN(c2cccc(F)c2)CC1)NO |
| 187 to 189 °C | COc1c(N2C[C@H](N)[C@H]3OCC[C@H]32)c(F)cc2c(=O)c(C(=O)O)cn(C3CC3)c12 (relative stereo) |
| 75 °C | CCOC(=O)c1c(NCCCN(C)C)c2ccc(C)nc2n(CC)c1=O |
| 104 °C | COc1cc(C)c2c(c1)[C@@H]1c3ccccc3N[C@@H]1C2 (relative stereo) |
| 137 to 138 °C | CCn1c(Oc2cccc(NC(N)=O)c2)nnc1[C@@H](C)NS(=O)(=O)c1ccc(Cl)c(Cl)c1 |
| 164 °C | N=C(N)NC(=O)c1cn(-c2ccnc3ccccc23)c2ncccc12 |
| 89 °C | CC(C)OC(=O)c1cc(NC(=S)OC(C)C)ccc1Cl |

| melting point | Compound |
| --- | --- |
| 177 °C | Cc1ccc2nc3cc(C)c(=O)cc-3sc2c1 |
| 258 to 260 °C | CCCCc1nc2c(N)nc3cccnc3c2n1CCNC(=O)c1cccc(O)n1 |
| 260 to 264 °C | COc1ccccc1NC(=O)Nc1ccc(CC(=O)O)cc1C |
| 253 °C | O=C1c2cc3nn[nH]c(=O)c3cc2OC2CCCN12 (stereo not drawn) |
| 183 to 187 °C | O=C(Nc1ccc(OC(F)(F)F)cc1)NC1CCN(C(=O)Cc2ccccn2)CC1 |
| 175 to 177 °C | CCCC[C@@H](NC(=O)[C@H](Cc1ccc(O)cc1)NC(=O)OC(C)(C)C)C(=O)NCC(=O)Oc1c(Cl)c(Cl)c(Cl)c(Cl)c1Cl |
| 198 to 199 °C | O=C(O)C(=O)c1ccc(OCCCCc2ccncc2)cc1 |
| 127 °C | Cc1nc(S(=O)Cc2ccc(Cl)cc2)nc2c1CCCC2 (stereo not drawn) |
| 187 to 192 °C | O=C(CC[C@H]1CC[C@H](Nc2ncc3ncnc(Nc4ccc(F)c(Cl)c4)c3n2)CC1)N1CCCC1 |
| 175 to 177 °C | C=CCOC(=O)NCc1ccc(C(=O)O)cc1 |
| 152 to 155 °C | COc1ccc(OCc2c(C)cncc2C)c2[nH]c(C3CC3)nc12 |
| 246 °C | CS(=O)(=O)c1cccc(NC(=O)c2cnn3c(C(F)(F)F)cc(-c4ccc(C(F)(F)F)c(F)c4)nc23)c1 |
| 240 to 241 °C | COc1cc(CN/C=C2\C(=O)NC(=O)c3ccc(-c4ccc(Oc5ccccc5)cc4)cc32)cc(O)c1OC |
| 78 to 80 °C | COC1=CC(=O)[C@H](C(=O)O[C@@H]2C[C@H](C)CC[C@H]2C(C)C)[C@@H](C)C1 |
| 245 to 247 °C | COc1cc(OC)c2c(=O)[nH]c(-c3ccc(O)cc3)cc2c1 |
| > 300 °C | CCOCCn1cc2c(=O)[nH]c(=O)[nH]c2n1 |
| 233 °C | CCNC(=O)c1ccc(N2CCN(Cc3cnc4c(c3)NC(=O)C3CCCCN43)CC2)cc1 (stereo not drawn) |
| 175 to 176 °C | CCOC(=O)C(=O)CC(=O)c1cn(Cc2ccc([N+](=O)[O-])cc2)c2ccccc2c1=O |
| 262 to 264 °C | O=C(O)c1ccccc1-c1ccc([N+](=O)[O-])cn1 |
| 79 to 81 °C | N#CC(c1ccccc1)N1CCN(C2CCCCC2)CC1 (stereo not drawn) |
| 110 to 112 °C | Cc1cc(N)n(-c2ccc(Cl)c(Cl)c2)n1 |
| 113 to 115 °C | O=S(=O)(Nc1onc(-c2ccccc2)c1Br)c1ccccc1 |
| 197 to 200 °C | CC(=O)Nc1ccccc1NS(=O)(=O)c1cc(C(=O)O)cc(NCc2ccccc2)c1Oc1ccccc1 |
| 59 to 61 °C | CCCCCCCCc1ccc(OC2=CC(=O)OC2O)cc1 (stereo not drawn) |

| melting point | Compound |
| --- | --- |
| 181 to 183 °C | CCOC(=O)c1cnc2cc(N)ccc2n1 |
| 128 to 131 °C | CCOC(=O)N1CCN(C2=Nc3cc(Br)ccc3N3CCc4cccc2c43)CC1 |
| 232 to 235 °C | CN(Cc1ccc(NC(=O)C2=Cc3cc(Br)ccc3S(=O)(=O)CC2)cc1)C1CCOCC1 |
| 209 to 210 °C | Cc1ccc(-c2nnc3cc(-c4ccccc4)c(OCc4ncn(C)n4)nn23)s1 |
| 99 to 100 °C | Clc1nc(C2CC2)nc(N2CCOCC2)n1 |
| 125 to 127 °C | COc1cc(OC)nc(SC2CCCC2CC(=O)O)n1 (stereo not drawn) |
| > 260 °C | COc1cc2c(cc1OC)-c1cc3cc(O)ccc3n1C2=O |
| 150 to 151 °C | CNc1nc(C)c(C)cc1NC(=O)N1CCN(c2cc(OC)cc(OC)c2)CC1 |
| 168 to 170 °C | Cc1[nH]cnc1CSCCN=CNC#N |
| 110 to 112 °C | CN1CCN(CCCCCNc2ncc3cc(-c4c(Cl)cccc4Cl)c(=O)n(C)c3n2)CC1 |
| 170 to 175 °C | O=C(O)CCNc1ccc(C(=O)c2ccccc2)cc1[N+](=O)[O-] |
| 58 to 61 °C | CCOC(=O)C1C(=O)Cc2ccccc21 (stereo not drawn) |
| 135 to 138 °C | CSc1ccc(C2=CC(=O)C3(CCOCC3)O2)cc1 |
| 72 to 74 °C | COC(=O)c1ccc(/C=C(\C)c2ccc3c(c2)OC(C)(C)O3)cc1 |
| 144 to 145 °C | CC1(C)CC(=C2CC(C)(C)NC(C)(C)C2)CC(C)(C)N1 |
| 300 °C | O=c1cc2c(n[nH]1)-c1ccc(O)cc1CC2 |
| 167 to 169 °C | CS(=O)(=O)Nc1ccc(C(=O)O)cc1Oc1ccc(F)cc1F |
| 136 to 138 °C | COC(=O)CCC(C)C1CCC2C3CC=C4C(C)(C)C(O)CCC4(C)C3CCC12C (stereo not drawn) |
| 108 to 109 °C | Oc1ccc(-c2nc3ccccc3s2)cc1 |
| 257 to 258 °C | Cc1nnc(NCCCN2CCCC2=O)c2c1cc1ccccn12 |
| 103 °C | COC1(c2cc(OCc3ccc4c(ccc(=O)n4C)c3)cc(C(F)(F)F)c2)CCOCC1 |
| 162 to 163 °C | CC(=O)NCC1CN(c2ccc(S(=O)(=O)CCO)c(F)c2)C(=O)O1 (stereo not drawn) |
| 137 °C | Nc1cc(Oc2cccc(O)c2)ccc1[N+](=O)[O-] |
| 105 to 106 °C | CSC=CC(C)(C)C(=O)Nc1ccc(Cl)cc1 |

| melting point | Compound |
| --- | --- |
| 169 to 170 °C | Cc1cc2nccn2nc1OCC(C)(C)CCCCS(N)(=O)=O |
| 142 to 146 °C | CSc1ccc(-c2c(C(F)(F)F)n(C)[nH]c2=O)cc1 |
| 118 to 120 °C | CCCCSc1cc(C(=O)OC)cc(S(N)(=O)=O)c1Cc1ccccc1 |
| 214 to 215 °C | CN1CCC(c2c[nH]c3ccc(OS(=O)(=O)c4c(F)cccc4F)cc23)CC1 |
| 64 to 66 °C | COC(=O)CCCC(=O)c1ccc(OC)c(CCC(=O)OC)n1 |
| 74 to 76 °C | NC(=NO)c1ccccc1C(F)(F)F |
| 102 to 104 °C | Ic1ccc(N(c2ccccc2)c2ccccc2)cc1 |
| 147 to 158 °C | CC(=O)OC1CSC(Oc2ccc3ccn(C(=O)OC(C)(C)C)c3c2)C(OC(C)=O)C1OC(C)=O (stereo not drawn) |
| 143 °C | CC(=NO)c1ccnc(Cl)c1 |
| 188 °C | CCC(=O)N[C@H]1CC[C@H](CCN2CCN(c3nccc4ccoc34)CC2)CC1 |
| 109 to 112 °C | CCCCCCSC[C@H](N[C@@H](C)C(=O)N1CCC[C@H]1C(=O)O)C(=O)O |
| 140 to 142 °C | COc1ccc(S(=O)(=O)N2CCc3cccc(-c4ccc(F)nc4)c32)cc1 |
| 127 to 135 °C | O=[N+]([O-])c1ccccc1NN=Cc1ncc(C(F)(F)F)cc1Cl |
| 56.8 °C | CSc1cc(-c2ccccc2)nc(-c2cccc(CCl)c2)c1 |
| 141 to 142 °C | CCCN(c1ccccc1)c1nc(=O)c2cccnc2s1 |
| 109 to 110 °C | CC(C)c1cccc2c1O[C@@H](C(C)C)C(=S)N2CC(=O)O |
| 89 to 90 °C | N#CC(c1ccc(C(F)(F)F)cc1)N1CCOCC1 (stereo not drawn) |
| 202 to 205 °C | COc1ccc(S(=O)(=O)N2CCc3cccc(-c4cc(OC)c(OC)c(OC)c4)c32)cc1 |
| 188 to 189 °C | CCC(C(C)=CC(CNC(=O)c1cc(C)n[nH]1)=NO)[N+](=O)[O-] (stereo not drawn) |
| 107 to 109 °C | Cc1cccc(-c2nc(N)sc2-c2cccc(-c3ccc(S(C)(=O)=O)cc3)c2)n1 |
| 48 to 50 °C | Cn1ccc(C(=O)c2ccc(Cl)cc2)c1 |
| 88 °C | c1ccc(OCCn2ccnc2)cc1 |

| Compound | melting point |
| --- | --- |
| Nc1cccc2c1CCNC2 | 153 to 154 °C |
| CC(C)(C)C(=O)c1c(CC(C)(C)C(=O)O)n(Cc2ccc(Cl)cc2)c2ccc(OCc3ccc4sccc4n3)cc12 | 193 to 194 °C |
| NP(N)(=S)NC1CCCCC1 | 148 to 150 °C |
| CCCCCCc1cc2c(s1)-n1c(C)nnc1CN=C2c1ccccc1C | 135 to 137 °C |
| CCOC(=O)c1nnc2n1-c1ccccc1C(c1ccccc1F)=NC2 | 195 to 197 °C |
| CP(=O)(O)C[C@@H](O)CN | 221 to 222 °C |
| COC(=O)C1COC(c2ncn3c2CN(C)C(=O)c2c(Cl)cccc2-3)=N1 (stereo not drawn) | 216 to 218 °C |
| CCCCCCC(C)(C)c1cc(O)c2c(c1)oc(=O)c1ccc(OC)cc12 | 149 to 151 °C |
| OC1(c2ccccc2)CCN(CCc2c[nH]c3ccccc23)CC1 | 133 to 137 °C |
